Measured values: patent publication US20100216827A1 (Metabolex, Inc., priority 2008, published 2010)

Key:
C57BL/6J mice [1] = assay: Intra-peritoneal glucose tolerance test (IPGTT); assay type: in vivo; conditions: 100 mg/kg oral gavage, overnight fasted male C57BL/6J mice, 2 g/kg glucose i.p., vs vehicle
Experimental: 8-10 week old male C57BL/6J mice (Harlan) were maintained on regular chow diet from Harlan (2018 Teklad Global). For the oral glucose tolerance test (OGTT), on the day of the experiment mice were fasted for 6 hours, then randomized into groups (n=10-15) to receive the tested GPR120 agonist at doses ranging from 30 mg/kg to 100 mg/kg or the vehicle (1% CMC, 2% TWEEN 80). For the intra-peritoneal glucose tolerance test (IPGTT), the mice were fasted for overnight, then randomized into groups (n=10-15) to receive the tested GPR120 agonist at doses ranging from 30 mg/kg to 100 mg/kg or the vehicle (1% CMC, 2% TWEEN 80). Compounds were delivered orally via gavage at 10 mL/kg. Blood glucose levels were measured by glucometer (Ascensia Elite XL, Bayer) at time −30 minutes before administration of compound. Blood glucose was measured again after 30 minutes (at time 0), and then the mice were dosed orally with 3 g/kg glucose at 10 mL/kg or were dosed intraperitoneally with 2 g/kg glucose at 10 mL/kg. […]
Glucose levels were plotted against time, and the incremental area under the curve (AUC) of the glucose excursion was determined from time 0 using Graphpad Prism 5.01. Outliers were excluded using Tukey's box plot outlier test, and statistical significance of differences in AUC of compound treatment compared to vehicle was determined by non-parametric Kruskal-Wallis test with Dunn's post test. […]

C57BL/6J mice [2] = assay: Oral glucose tolerance test (OGTT); assay type: in vivo; conditions: 6 h fasted male C57BL/6J mice, 3 g/kg oral glucose, vs vehicle
Experimental: 8-10 week old male C57BL/6J mice (Harlan) were maintained on regular chow diet from Harlan (2018 Teklad Global). For the oral glucose tolerance test (OGTT), on the day of the experiment mice were fasted for 6 hours, then randomized into groups (n=10-15) to receive the tested GPR120 agonist at doses ranging from 30 mg/kg to 100 mg/kg or the vehicle (1% CMC, 2% TWEEN 80). For the intra-peritoneal glucose tolerance test (IPGTT), the mice were fasted for overnight, then randomized into groups (n=10-15) to receive the tested GPR120 agonist at doses ranging from 30 mg/kg to 100 mg/kg or the vehicle (1% CMC, 2% TWEEN 80). Compounds were delivered orally via gavage at 10 mL/kg. Blood glucose levels were measured by glucometer (Ascensia Elite XL, Bayer) at time −30 minutes before administration of compound. Blood glucose was measured again after 30 minutes (at time 0), and then the mice were dosed orally with 3 g/kg glucose at 10 mL/kg or were dosed intraperitoneally with 2 g/kg glucose at 10 mL/kg. Blood glucose measurements were taken 20, 40, 60, 90 and 120 minutes after glucose administration, by glucometer (Ascensia Elite XL, Bayer).
Glucose levels were plotted against time, and the incremental area under the curve (AUC) of the glucose excursion was determined from time 0 using Graphpad Prism 5.01. Outliers were excluded using Tukey's box plot outlier test, and statistical significance of differences in AUC of compound treatment compared to vehicle was determined by non-parametric Kruskal-Wallis test with Dunn's post test.
The compounds were tested at 100 mg/kg and the levels of blood glucose were determined in the presence and absence of the tested compounds. The percentage of glucose or intra-peritoneal reduction is reported as a percent reduction in AUC (area under the curve). The tested compound was selected as examples from the exemplified compounds.

human GPR120 = molecular target: T1, human GPR120 (Homo sapiens, UniProt Q5NUL3); assay: Intracellular Ca2+ (FLIPR Calcium 4, Flexstation) assay in human GPR120 stable HEK293 cell line coexpressing Gqi5; assay type: cell-based
T1 construct: host or cells: HEK293 cells coexpressing Gqi5
T1 sequence (Q5NUL3 1-361): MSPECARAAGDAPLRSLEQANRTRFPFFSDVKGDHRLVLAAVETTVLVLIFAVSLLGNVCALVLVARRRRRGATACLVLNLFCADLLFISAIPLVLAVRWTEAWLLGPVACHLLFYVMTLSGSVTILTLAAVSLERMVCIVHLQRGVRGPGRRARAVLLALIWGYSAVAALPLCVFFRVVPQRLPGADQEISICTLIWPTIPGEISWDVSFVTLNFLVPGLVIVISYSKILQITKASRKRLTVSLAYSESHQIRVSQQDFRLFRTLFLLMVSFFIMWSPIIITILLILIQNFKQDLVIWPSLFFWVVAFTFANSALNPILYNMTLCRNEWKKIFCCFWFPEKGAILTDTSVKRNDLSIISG
Outline: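 Calcium 4 dye-loaded HEK293 cells expressing N-terminally Flag-tagged human GPR120 with Gqi5 (HBSS/20 mM HEPES, pH 7.4; 50 min, 37 °C). Fluorescence (485/525 nm) read for 90 s after addition of compound at 8 concentrations, 0.00001–20 μM; EC50 from Max−Min change. % activity at 5 μM versus maximal GW9508 response (6.7 μM).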

Compound	% reduction in IPGTT AUC (C57BL/6J mice [1])	% reduction in OGTT AUC (C57BL/6J mice [2]; 30 mg/kg oral gavage)	% reduction in OGTT AUC (C57BL/6J mice [2]; 100 mg/kg oral gavage)	% Activity at 5 μM (human GPR120; 5 μM compound compared to the maximal activity of GW9508 at 6.7 μM (100%))	EC50 (human GPR120; human GPR120 stably expressing cells, 8 concentrations 0.00001 to 20 μM, read-out: EC50 ≦ 1 μM)
Cc1cc(COc2c(F)cc(CC(C)C(=O)O)cc2F)n(-c2ccc(Cl)cc2)n1 (stereo not drawn) [Example 36, 3-(4-((1-(4-chlorophenyl)-3-methyl-1H-pyrazol-5-yl)methoxy)-3,5-difluorophenyl)-2-methylpropanoic acid]	24%	15%	45.2%	96%	≤ 1000 nM
Cc1cc(COc2c(F)cc(C[C@@H](C)C(=O)O)cc2F)n(-c2ccc(Cl)cc2)n1 [Example 43, (R)-3-(4-((1-(4-chlorophenyl)-3-methyl-1H-pyrazol-5-yl)methoxy)-3,5-difluorophenyl)-2-methylpropanoic acid]		20%	40%		
Cc1cc(COc2c(F)cc(C[C@H](C)C(=O)O)cc2F)n(-c2ccc(Cl)cc2)n1 [Example 44, (S)-3-(4-((1-(4-chlorophenyl)-3-methyl-1H-pyrazol-5-yl)methoxy)-3,5-difluorophenyl)-2-methylpropanoic acid]		33%	39%		
